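96-well plates; 48 h exposure; 5 concentrations. Endpoints by linear interpolation between flanking doses. Not reached: highest tested concentration assigned. TGI: concentration producing complete growth inhibition.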
Experiments:
Assay in all cases: NCI tumour cell line growth inhibition, 48 h
[1] = test system: NCI-H522 lung
[2] = test system: NCI-H460 lung
[3] = test system: SK-MEL-2 melanoma
[4] = test system: U251 CNS
[5] = test system: IGROV1 ovarian
[6] = test system: SK-OV-3 ovarian
[7] = test system: SNB-19 CNS
[8] = test system: SW-620 colon
[9] = test system: MCF7 breast
[10] = test system: K-562 leukemia
[11] = test system: 786-0 renal
[12] = test system: CAKI-1 renal
[13] = test system: EKVX NSCLC
[14] = test system: HS 578T breast
[15] = test system: NCI-H23 lung
[16] = test system: M14 melanoma
[17] = test system: BT-549 breast
[18] = test system: PC-3 prostate
[19] = test system: A498 renal
[20] = test system: UACC-257 melanoma
[21] = test system: T-47D breast
[22] = test system: SF-268 CNS
[23] = test system: UACC-62 melanoma
[24] = test system: HOP-62 NSCLC
[25] = test system: NCI/ADR-RES ovarian
[26] = test system: SK-MEL-5 melanoma
[27] = test system: RPMI-8226 leukemia
[28] = test system: DU-145 prostate
[29] = test system: MDA-MB-231 breast
[30] = test system: KM12 colon
[31] = test system: MOLT-4 leukemia
[32] = test system: MDA-MB-435
[33] = test system: COLO 205 colon
[34] = test system: HCT-15 colon
[35] = test system: OVCAR-4 ovarian
[36] = test system: ACHN renal
[37] = test system: SF-295 CNS
[38] = test system: HCT-116 colon
[39] = test system: SN12C renal
[40] = test system: CCRF-CEM leukemia
[41] = test system: HOP-92 NSCLC
[42] = test system: NCI-H226 lung
[43] = test system: TK-10 renal
[44] = test system: SF-539 CNS
[45] = test system: OVCAR-5 ovarian
[46] = test system: RXF 393 renal
[47] = test system: MDA-N
[48] = test system: OVCAR-8 ovarian
[49] = test system: OVCAR-3 ovarian
[50] = test system: LOX IMVI melanoma
[51] = test system: SNB-75 CNS
[52] = test system: UO-31 renal
[53] = test system: SR leukemia
[54] = test system: HT29 colon
[55] = test system: HCC-2998 colon
[56] = test system: HL-60(TB) leukemia
[57] = test system: SK-MEL-28 melanoma
[58] = test system: MALME-3M melanoma

Measured: TGI

C#CCCOC(=O)c1ccccc1OC(C)=O
> 100 µM: [1] | [2] | [3] | [4] | [5] | [6] | [7] | [8] | [9] | [10] | [11] | [12] | [13] | [14] | [15] | [16] | [17] | [18] | [19] | [20] | [21] | [22] | [23] | [24] | [25] | [26] | [27] | [28] | [29] | [30] | [31] | [32] | [33] | [34] | [35] | [36] | [37] | [38] | [39] | [40] | [41] | [42] | [43] | [44] | [45] | [46] | [47] | [48] | [49] | [50] | [51] | [52] | [53]

Clc1ccc(-c2nnc(-c3c(Cl)c(Cl)c(Cl)c(Cl)c3-c3nc4ccccc4[nH]3)o2)cc1
> 100 µM: [1] | [2] | [3] | [54] | [5] | [6] | [8] | [9] | [10] | [11] | [55] | [12] | [13] | [14] | [15] | [16] | [17] | [56] | [18] | [19] | [20] | [21] | [22] | [23] | [24] | [25] | [26] | [27] | [57] | [58] | [28] | [30] | [31] | [32] | [33] | [34] | [35] | [36] | [37] | [38] | [39] | [40] | [41] | [42] | [44] | [45] | [46] | [47] | [48] | [49] | [50] | [51] | [52] | [53]
